ChEMBL document CHEMBL5506053, “Explorations of Agonist Selectivity for the α9* nAChR with Novel Substituted Carbamoyl/Amido/Heteroaryl Dialkylpiperazinium Salts and Their Therapeutic Implications in Pain and Inflammation” (J Med Chem, 2024)
Calls of active or inactive are those of the source.

Legend:
[1] = Apparent permeability across apical to basolateral side in human Caco-2 cells at pH 6.8 at 5 ug/ml measured after 2 hrs by UPLC-MS/MS analysis; format: ADME, cell-based; details: caco-2, pH 6.8, 2 h, dose 5 µg/ml
[2] = target: T1, Neuronal acetylcholine receptor subunit alpha-7 (Homo sapiens, UniProt P36544); assay: Partial agonist activity at human alpha7 nAChR expressed as xenopus laevis oocytes assessed as increase in receptor desensitization by measuring fold change in maximum response (Imax) measured after 120 secs by two-electrode voltage-clamp electrophysiology method relative to acetylcholine; format: cell-based; details: Oocyte, filed as partial agonist, time 120.0 sec
[3] = target: T2, Neuronal acetylcholine receptor; alpha3/beta4 (Homo sapiens) (UniProt P30926+P32297); assay: (§1) Inhibition of acetylcholine induced response in human alpha3beta4 nAChR expressed in xenopus laevis oocytes assessed as fold change at 100 uM preincubated with 3 uM acetylcholine followed by compound administration for 12 sec and measured 181 sec post washout by two-electrode voltage-clamp electrophysiology method relative to acetylcholine alone; format: cell-based; details: Oocyte
[4] = Apparent permeability across basolateral to apical side in human Caco-2 cells at pH 6.8 at 5 ug/ml measured after 2 hrs by UPLC-MS/MS analysis; format: ADME, cell-based; details: caco-2, pH 6.8, 2 h, dose 5 µg/ml
[5] = target: Neuronal acetylcholine receptor subunit alpha-9 (Homo sapiens, UniProt Q9UGM1); assay: (§2) Agonist activity at human alpha9 nAChR expressed as xenopus laevis oocytes assessed as increase in receptor desensitization by measuring fold change in maximum response (Imax) measured after 120 secs by two-electrode voltage-clamp electrophysiology method relative to acetylcholine; format: cell-based; details: Oocyte, filed as agonist, time 120.0 sec
Mus musculus [6] = assay: Antinociceptive activity in sham-treated C57BL/6J mouse model assessed as effect on von Frey response at 20 mg/kg, ip measured after 1 to 72 hrs; format: functional, organism-based; details: time 1-72 hrs
[7] = Apparent permeability across apical to basolateral side in human Caco-2 cells at pH 7.4 at 5 ug/ml measured after 2 hrs by UPLC-MS/MS analysis; format: ADME, cell-based; details: caco-2, pH 7.4, 2 h, dose 5 µg/ml
[8] = target: T1, Neuronal acetylcholine receptor subunit alpha-7; assay: as §2, with “alpha7” for “alpha9”, “peak current” for “maximum”, “at 30 uM incubated for” for “(Imax) measured after”, “secs presence of PNU-120596” for “secs”; format: cell-based; details: Oocyte, filed as agonist, time 120.0 sec
[9] = Apparent permeability across basolateral to apical side in human Caco-2 cells at pH 5 at 5 ug/ml measured after 2 hrs by UPLC-MS/MS analysis; format: ADME, cell-based; details: caco-2, pH 5, 2 h, dose 5 µg/ml
[10] = target: T3, Neuronal acetylcholine receptor; alpha4/beta2 (Homo sapiens) (UniProt P17787+P43681); assay: as §1, with “alpha4beta2” for “alpha3beta4”, “30” for “100”; format: cell-based; details: Oocyte
PBMC [11] = assay: Inhibition of ATP-mediated IL-1beta release in LPS primed BzATP induced human PBMC cells at 100 uM primed with LPS for 3 hrs followed by BzATP and compound addition for 30 mins by ELISA; format: functional, cell-based
[12] = target: T3, Neuronal acetylcholine receptor; alpha4/beta2 (Homo sapiens); assay: Agonist activity at human alpha4beta2 nAChR expressed in xenopus laevis oocytes at 30 uM measured after 120 secs by two-electrode voltage-clamp electrophysiology method relative to control; format: cell-based; details: Oocyte, time 120.0 sec
[13] = Toxicity in C57BL/6J mouse assessed as effect on locomotor activity at 20 mg/kg, ip measured after 6 hrs; details: in vivo
[14] = Apparent permeability across apical to basolateral side in human Caco-2 cells at pH 5 at 5 ug/ml measured after 2 hrs by UPLC-MS/MS analysis; format: ADME, cell-based; details: caco-2, pH 5, 2 h, dose 5 µg/ml
[15] = Apparent permeability across basolateral to apical side in human Caco-2 cells at pH 7.4 at 5 ug/ml measured after 2 hrs by UPLC-MS/MS analysis; format: ADME, cell-based; details: caco-2, pH 7.4, 2 h, dose 5 µg/ml
Oocyte [16] = assay: as §1, with “mouse muscle alpha1beta1epsilondelta” for “human alpha3beta4”, “30” for “100”; format: cell-based
[17] = target: Neuronal acetylcholine receptor; alpha9/alpha10 (Homo sapiens) (UniProt Q9UGM1+Q9GZZ6); assay: Agonist activity at human alpha9alpha10 nAChR expressed as xenopus laevis oocytes assessed as increase in receptor desensitization by measuring fold change in maximum response (Imax) measured after 120 secs by two-electrode voltage-clamp electrophysiology method relative to acetylcholine; format: cell-based; details: Oocyte, filed as agonist, time 120.0 sec
PBMC [18] = assay: Inhibition of ATP-mediated IL-1beta release in LPS primed BzATP induced human PBMC cells at 100 fM primed with LPS for 3 hrs followed by BzATP and compound addition for 30 mins by ELISA; format: functional, cell-based
[19] = target: T2, Neuronal acetylcholine receptor; alpha3/beta4 (Homo sapiens); assay: Agonist activity at human alpha3beta4 nAChR expressed in xenopus laevis oocytes at 100 uM measured after 120 secs by two-electrode voltage-clamp electrophysiology method relative to control; format: cell-based; details: Oocyte, time 120.0 sec
THP-1 [20] = assay: Cytotoxicity against monocytic human THP-1 cells assessed as effect on lactate dehydrogenase activity in supernatant; format: toxicity, cell-based
[21] = Metabolic stability in pooled BALB/c mouse plasma at 1 uM measured after 0 to 120 mins by UPLC-MS/MS analysis; format: ADME, cell-free; details: time 0-120 min
THP-1 [22] = assay: Induction of IL-1beta release in LPS primed monocytic human THP-1 cells at 10 uM primed with LPS for 5 hrs followed by compound addition and further incubated for 40 mins by ELISA; format: functional, cell-based
[23] = Plasma protein binding in human; format: ADME, cell-free
Oocyte [24] = assay: Agonist activity at mouse muscle alpha1beta1epsilondelta nAChR expressed in xenopus laevis oocytes at 30 uM measured after 120 secs by two-electrode voltage-clamp electrophysiology method relative to control; format: cell-based; details: time 120.0 sec
[25] = Metabolic stability in pooled BALB/c mouse plasma assessed as compound remaining at 1 uM measured after 0 to 120 mins by UPLC-MS/MS analysis; format: ADME, cell-free; details: time 0-120 min
Mus musculus [26] = assay: Antiinflammatory activity in CFA-treated C57BL/6J mouse model assessed as reduction in paw edema at 20 mg/kg, ip measured after 6 hrs
Mus musculus [27] = assay: Antinociceptive activity in complete freund's adjuvant induced inflammatory pain in C57BL/6J mouse model assessed as increase in mechanical pain threshold at 20 mg/kg, ip pretreated with CFA for 3 days followed by compound treatment and measured after 1 to 72 hrs; format: functional, organism-based; details: time 1-72 hrs
Mus musculus [28] = assay: Antiinflammatory activity in CFA-treated C57BL/6J mouse model assessed as reduction in paw edema at 10 mg/kg, ip measured after 6 hrs
Mus musculus [29] = assay: Antinociceptive activity in complete freund's adjuvant induced inflammatory pain in C57BL/6J mouse model assessed as increase in mechanical pain threshold at 2 mg/kg, ip pretreated with CFA for 3 days followed by compound treatment and measured after 6 to 24 hrs; format: functional, organism-based; details: time 6-24 hrs
[30] = target: T1, Neuronal acetylcholine receptor subunit alpha-7; assay: Agonist activity at human alpha7 nAChR expressed as xenopus laevis oocytes assessed as increase in receptor desensitization by measuring fold change in maximum response (Imax) measured after 120 secs by two-electrode voltage-clamp electrophysiology method relative to acetylcholine; format: cell-based; details: Oocyte, filed as agonist, time 120.0 sec
Mus musculus [31] = assay: Antinociceptive activity in complete freund's adjuvant induced inflammatory pain in C57BL/6J mouse model assessed as increase in mechanical pain threshold at 10 mg/kg, ip pretreated with CFA for 3 days followed by compound treatment and measured after 5 days; format: functional, organism-based; details: time 5.0 day
[32] = Toxicity in C57BL/6J mouse assessed as effect on locomotor activity at 10 mg/kg, ip measured after 6 hrs; format: organism-based; details: in vivo
Mus musculus [33] = assay: Antinociceptive activity in sham-treated C57BL/6J mouse model assessed as effect on von Frey response at 10 mg/kg, ip measured after 5 days; format: functional, organism-based; details: time 5.0 day
Mus musculus [34] = assay: Antinociceptive activity in complete freund's adjuvant induced inflammatory pain in C57BL/6J mouse model assessed as increase in mechanical pain threshold at 10 mg/kg, ip pretreated with CFA for 3 days followed by compound treatment and measured after 1 to 24 hrs; format: functional, organism-based; details: time 1-24 hrs
Mus musculus [35] = assay: Antinociceptive activity in complete freund's adjuvant induced inflammatory pain in C57BL/6J mouse model assessed as increase in mechanical pain threshold at 10 mg/kg, ip pretreated with CFA for 3 days followed by compound treatment and measured after 72 hrs; format: functional, organism-based
Mus musculus [36] = assay: Antinociceptive activity in complete freund's adjuvant induced inflammatory pain in alpha7 nAChR knockout C57BL/6J mouse model assessed as increase in mechanical pain threshold at 10 mg/kg, ip pretreated with CFA for 3 days followed by compound treatment and measured after 6 hrs; format: functional, organism-based
Mus musculus [37] = assay: Antinociceptive activity in complete freund's adjuvant induced inflammatory pain in C57BL/6J mouse model harboring wild type alpha7 nAChR assessed as increase in mechanical pain threshold at 10 mg/kg, ip pretreated with CFA for 3 days followed by compound treatment and measured after 6 hrs; format: functional, organism-based

T1 sequence (P36544 whole entry): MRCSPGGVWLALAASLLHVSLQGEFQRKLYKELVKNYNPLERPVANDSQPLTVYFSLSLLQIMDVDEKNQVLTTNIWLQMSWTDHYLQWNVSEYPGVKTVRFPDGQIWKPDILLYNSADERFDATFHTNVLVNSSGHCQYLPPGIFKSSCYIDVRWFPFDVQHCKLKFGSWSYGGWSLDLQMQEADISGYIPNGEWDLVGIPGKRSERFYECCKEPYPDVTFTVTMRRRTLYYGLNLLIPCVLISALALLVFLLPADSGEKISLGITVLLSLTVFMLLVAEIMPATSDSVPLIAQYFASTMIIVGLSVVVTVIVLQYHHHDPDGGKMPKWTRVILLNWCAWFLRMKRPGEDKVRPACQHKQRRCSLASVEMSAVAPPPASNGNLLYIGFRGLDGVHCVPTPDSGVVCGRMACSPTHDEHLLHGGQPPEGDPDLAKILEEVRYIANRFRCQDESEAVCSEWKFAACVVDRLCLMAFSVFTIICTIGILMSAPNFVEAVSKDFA
Chain of Neuronal acetylcholine receptor subunit alpha-9 (Q9UGM1 whole entry): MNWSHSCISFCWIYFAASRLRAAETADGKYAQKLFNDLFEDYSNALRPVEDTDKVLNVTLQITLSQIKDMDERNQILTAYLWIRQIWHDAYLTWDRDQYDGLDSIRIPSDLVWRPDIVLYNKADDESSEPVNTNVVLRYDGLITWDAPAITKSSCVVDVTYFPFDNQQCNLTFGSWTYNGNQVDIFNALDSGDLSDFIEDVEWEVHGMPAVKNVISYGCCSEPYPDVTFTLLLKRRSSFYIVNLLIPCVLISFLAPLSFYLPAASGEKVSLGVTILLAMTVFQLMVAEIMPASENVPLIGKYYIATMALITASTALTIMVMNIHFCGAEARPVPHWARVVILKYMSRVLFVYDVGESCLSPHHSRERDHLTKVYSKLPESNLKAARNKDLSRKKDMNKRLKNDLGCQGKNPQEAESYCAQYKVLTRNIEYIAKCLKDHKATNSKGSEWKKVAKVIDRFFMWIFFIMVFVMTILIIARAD

| SMILES | Papp [1] | fold change (FC) [3] | Papp [4] | fold change (FC) [5] | Papp [7] | fold change (FC) [8] | Papp [9] | fold change (FC) [10] | Activity [12] [%] | Papp [14] | Papp [15] | fold change (FC) (Oocyte [16]) | fold change (FC) [17] | Activity [19] [%] | Activity (THP-1 [20]) | Stability [21] | Activity (THP-1 [22]) | PPB [23] [%] | Activity (Oocyte [24]) [%] | Stability [25] [%] | also measured |
| --- | --- | --- | --- | --- | --- | --- | --- | --- | --- | --- | --- | --- | --- | --- | --- | --- | --- | --- | --- | --- | --- |
| CC[N+]1(C)CCN(c2ccc(C(=O)Nc3cccc(C)n3)cc2)CC1.[I-] | 2.2 10^-6 cm/s | 0.849 | 2.6 10^-6 cm/s | 1.19 | 2.2 10^-6 cm/s | 0.13 | 1.9 10^-6 cm/s | 0.858 | < 1 | 1.9 10^-6 cm/s | 2.9 10^-6 cm/s | 0.413 | 0.92 | < 1 | Non-Toxic | Stable | inactive | 32 | < 1 | > 90 | fold change (FC) [2]: 0.4; Activity (Mus musculus [6]): inactive; inhibition (PBMC [11]): inactive; Activity [13]: Non-Toxic; inhibition (PBMC [18]): Active; Activity (Mus musculus [26]): Active; Activity (Mus musculus [27]): Active |
| CC[N+]1(C)CCN(c2ccc(NC(=O)c3cccc(C)n3)cc2)CC1.[I-] | 2.8 10^-6 cm/s | 0.659 | 3 10^-6 cm/s | 1.01 | 2.4 10^-6 cm/s | 111 | 2.9 10^-6 cm/s | 1.05 | < 1 | 2.5 10^-6 cm/s | 3.1 10^-6 cm/s | 0.558 | 1.04 | < 1 | Non-Toxic | Stable | inactive | 54 | < 1 | > 90 | Activity (Mus musculus [28]): Active; Activity (Mus musculus [29]): Active; fold change (FC) [30]: 0.41; Activity (Mus musculus [31]): Active; Activity [32]: Non-Toxic; Activity (Mus musculus [33]): inactive; Activity (Mus musculus [34]): Active; Activity (Mus musculus [35]): inactive; Activity (Mus musculus [36]): Active; Activity (Mus musculus [37]): Active |
